According to patent US20240109900A1, “AZABICYCLIC SHP2 INHIBITORS” (IRBM S.P.A., priority 2021, published 2024):
Read-outs that look alike come from different tables or passages of the source.

What was measured:
[1] = biological target: SHP-2 enzyme (Met1-Leu525) (Homo sapiens (Human), UniProt Q06124); assay: SHP2 inhibition enzymatic assay; type: biochemical; conditions: 0.5 nM SHP-2 activated by 500 nM IRS1 peptide, 75 μM DiFMUP substrate; read-out: SHP2wt-IC50
Procedure, shortened: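 SHP-2 (Met1-Leu525), 0.5 nM, activated with 500 nM IRS1 bis-phosphopeptide, preincubated 30 min with compounds in HEPES pH 7.2 buffer with 5 mM DTT. 75 μM DiFMUP added for 30 min at room temperature, stopped with bpV; fluorescence read. IC50 from four-parameter logistic fit of % inhibition.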

[2] = tested on: ERK phosphorylation in KYSE-520 cells; assay: Phospho-ERK cellular assay; type: cell-based; conditions: read-out: PERK IC50
Procedure, shortened: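 TR-FRET read-out of ERK1/2 Thr202/Tyr204 phosphorylation was taken after overnight antibody incubation at room temperature. Before that, KYSE-520 cells were treated 2 h at 37 °C with compound dilutions and lysed 30 min. Percent inhibition relative to vehicle and cell-free wells was fitted four-parametrically to give IC50.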

[3] = Homo sapiens, KYSE-520, 2 h, KYSE-520 cells, 2 h at 37° C., phospho-ERK1/2 (Thr202/Tyr204) TR-FRET

SHP-2 enzyme (Met1-Leu525), sequence (Q06124 1-525): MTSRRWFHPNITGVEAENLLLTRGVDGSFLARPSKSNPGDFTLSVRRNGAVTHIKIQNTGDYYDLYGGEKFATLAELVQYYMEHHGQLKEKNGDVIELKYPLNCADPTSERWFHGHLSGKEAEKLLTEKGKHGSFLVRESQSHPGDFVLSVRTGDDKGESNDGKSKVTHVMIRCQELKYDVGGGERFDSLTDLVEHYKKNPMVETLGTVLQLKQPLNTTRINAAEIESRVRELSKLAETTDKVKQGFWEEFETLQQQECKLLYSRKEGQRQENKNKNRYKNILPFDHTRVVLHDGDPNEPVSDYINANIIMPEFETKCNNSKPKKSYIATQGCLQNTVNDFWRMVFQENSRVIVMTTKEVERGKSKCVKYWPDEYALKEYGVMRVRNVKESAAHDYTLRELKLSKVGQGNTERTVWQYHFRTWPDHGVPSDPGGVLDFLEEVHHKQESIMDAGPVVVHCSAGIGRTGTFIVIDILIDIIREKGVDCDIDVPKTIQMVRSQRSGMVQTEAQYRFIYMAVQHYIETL

| SMILES | IC50 [1] [nM] | IC50 [2, 3] [nM] | IC50 ([2]; Homo sapiens, KYSE-520, 2 h) [nM] | IC50 ([2]; KYSE-520 cells, 2 h at 37° C., phospho-ERK1/2 (Thr202/Tyr204) TR-FRET) [nM] |
| --- | --- | --- | --- | --- |
| Cc1cc([C@@]2(CN)[C@@H]3CCN(c4cnc5c(-c6ccc(F)c7ncccc67)c[nH]c5n4)C[C@@H]32)no1 [Example 156, ((1S,6R,7S)-3-(7-(8-fluoroquinolin-5-yl)-5H-pyrrolo[2,3-b]pyrazin-3-yl)-7-(5-methylisoxazol-3-yl)-3-azabicyclo[4.1.0]heptan-7-yl)methanamine] | < 500 | < 1000 | – | – |
| Cc1c(-c2n[nH]c3nc(N4CC[C@@H]5[C@H](C4)[C@@]5(CN)c4ccccc4C(F)(F)F)cnc23)ccc2nn(C)cc12 [Example 182, ((1S,6R,7R)-3-(3-(2,4-dimethyl-2H-indazol-5-yl)-1H-pyrazolo[3,4-b]pyrazin-6-yl)-7-(2-(trifluoromethyl)phenyl)-3-azabicyclo[4.1.0]heptan-7-yl)methanamine] | < 500 | < 1000 | – | – |
| NC[C@]1(c2ccccc2F)[C@@H]2CCN(c3cnc4c(-c5cccc6ncccc56)n[nH]c4n3)C[C@@H]21 [Example 242, ((1S,6R,7R)-7-(2-fluorophenyl)-3-(3-(quinolin-5-yl)-1H-pyrazolo[3,4-b]pyrazin-6-yl)-3-azabicyclo[4.1.0]heptan-7-yl)methanamine] | < 500 | < 1000 | – | – |
| Cc1csc(C2(CN)C3CCN(c4cnc5c(Sc6ccnc(N)c6Cl)n[nH]c5n4)CC32)n1 (stereo not shown) [Example 93, 4-((6-(7-(aminomethyl)-7-(4-methylthiazol-2-yl)-3-azabicyclo[4.1.0]heptan-3-yl)-1H-pyrazolo[3,4-b]pyrazin-3-yl)thio)-3-chloropyridin-2-amine] | < 500 | < 1000 | – | – |
| NC[C@]1(c2ccccc2F)[C@@H]2CCN(c3cnc4c(-c5ccc(O)cc5F)n[nH]c4n3)C[C@@H]21 [Example 332, 4-(6-((1S,6R,7R)-7-(aminomethyl)-7-(2-fluorophenyl)-3-azabicyclo[4.1.0]heptan-3-yl)-1H-pyrazolo[3,4-b]pyrazin-3-yl)-3-fluorophenol] | < 500 | < 1000 | – | – |
| Cc1csc(C2(CN)C3CCN(c4cnc5c(-c6ccc(Cl)c7ncccc67)n[nH]c5n4)CC32)n1 (stereo not shown) [Example 442, (3-(3-(8-chloroquinolin-5-yl)-1H-pyrazolo[3,4-b]pyrazin-6-yl)-7-(4-methylthiazol-2-yl)-3-azabicyclo[4.1.0]heptan-7-yl)methanamine] | < 500 | < 1000 | – | – |
| NCC1(c2ccsc2)C2CCN(c3cnc4c(-c5cccnc5C(F)(F)F)n[nH]c4n3)CC21 (stereo not shown) [Example 96, (7-(thiophen-3-yl)-3-(3-(2-(trifluoromethyl)pyridin-3-yl)-1H-pyrazolo[3,4-b]pyrazin-6-yl)-3-azabicyclo[4.1.0]heptan-7-yl)methanamine] | < 500 | < 1000 | – | – |
| Cc1cc([C@@]2(CN)[C@@H]3CCN(c4cnc5c(-c6ccnc7cc(F)ccc67)n[nH]c5n4)C[C@@H]32)no1 [Example 45, ((1S,6R,7S)-3-(3-(7-fluoroquinolin-4-yl)-1H-pyrazolo[3,4-b]pyrazin-6-yl)-7-(5-methylisoxazol-3-yl)-3-azabicyclo[4.1.0]heptan-7-yl)methanamine] | < 500 | < 1000 | – | – |
| NC[C@]1(c2ccccc2F)[C@@H]2CCN(c3cnc4c(-c5ccc6nccc(=O)n6c5)n[nH]c4n3)C[C@@H]21 [Example 260, 7-(6-((1S,6R,7R)-7-(aminomethyl)-7-(2-fluorophenyl)-3-azabicyclo[4.1.0]heptan-3-yl)-1H-pyrazolo[3,4-b]pyrazin-3-yl)-4H-pyrido[1,2-a]pyrimidin-4-one] | < 500 | > 5000 | – | – |
| Cn1cc2c(Cl)c(-c3n[nH]c4nc(N5C[C@@H]6[C@H](C5)[C@@]6(CN)c5nc(Cl)cs5)cnc34)ccc2n1 [Example 487, ((1R,5S,6r)-3-(3-(4-chloro-2-methyl-2H-indazol-5-yl)-1H-pyrazolo[3,4-b]pyrazin-6-yl)-6-(4-chlorothiazol-2-yl)-3-azabicyclo[3.1.0]hexan-6-yl)methanamine] | < 500 | < 1000 | – | – |
| NC[C@]1(c2ccccc2F)[C@@H]2CCN(c3cnc4c(-c5ccnc(N6CC[C@H](CO)C6)c5Cl)n[nH]c4n3)C[C@@H]21 [Example 386, ((S)-1-(4-(6-((1S,6R,7R)-7-(aminomethyl)-7-(2-fluorophenyl)-3-azabicyclo[4.1.0]heptan-3-yl)-1H-pyrazolo[3,4-b]pyrazin-3-yl)-3-chloropyridin-2-yl)pyrrolidin-3-yl)methanol] | < 500 | < 1000 | – | – |
| NC[C@]1(c2cc(F)cc(F)c2)[C@@H]2CCN(c3cnc4c(-c5ccc6c(=O)[nH]ccc6c5F)n[nH]c4n3)C[C@@H]21 [Example 306, 6-(6-((1S,6R,7R)-7-(aminomethyl)-7-(3,5-difluorophenyl)-3-azabicyclo[4.1.0]heptan-3-yl)-1H-pyrazolo[3,4-b]pyrazin-3-yl)-5-fluoroisoquinolin-1(2H)-one] | < 500 | < 1000 | – | – |
| Cn1nccc1C1(CN)C2CCN(c3cnc4c(-c5cccc(Cl)c5Cl)n[nH]c4n3)CC21 (stereo not shown) [Example 97, (3-(3-(2,3-dichlorophenyl)-1H-pyrazolo[3,4-b]pyrazin-6-yl)-7-(1-methyl-1H-pyrazol-5-yl)-3-azabicyclo[4.1.0]heptan-7-yl)methanamine] | < 500 | < 1000 | – | – |
| Cc1csc([C@@]2(CN)[C@@H]3CN(c4cnc5c(-c6ccc7nn(C)cc7c6Cl)n[nH]c5n4)C[C@@H]32)n1 [Example 457, ((1R,5S,6r)-3-(3-(4-chloro-2-methyl-2H-indazol-5-yl)-1H-pyrazolo[3,4-b]pyrazin-6-yl)-6-(4-methylthiazol-2-yl)-3-azabicyclo[3.1.0]hexan-6-yl)methanamine] | < 500 | < 1000 | – | – |
| COc1cc(-c2n[nH]c3nc(N4CC[C@@H]5[C@H](C4)[C@@]5(CN)c4ccccc4F)cnc23)c2ccnn2c1 [Example 147, ((1S,6R,7R)-7-(2-fluorophenyl)-3-(3-(6-methoxypyrazolo[1,5-a]pyridin-4-yl)-1H-pyrazolo[3,4-b]pyrazin-6-yl)-3-azabicyclo[4.1.0]heptan-7-yl)methanamine] | < 500 | < 1000 | – | – |
| Cc1c(-c2n[nH]c3nc(N4CC[C@@H]5[C@H](C4)[C@@]5(CN)c4ccc(F)cc4F)cnc23)ccc2nn(C)cc12 [Example 199, ((1S,6R,7R)-7-(2,4-difluorophenyl)-3-(3-(2,4-dimethyl-2H-indazol-5-yl)-1H-pyrazolo[3,4-b]pyrazin-6-yl)-3-azabicyclo[4.1.0]heptan-7-yl)methanamine] | < 500 | < 1000 | – | – |
| NCC1(c2cccc(F)c2)C2CCN(c3nc4[nH]nc(-c5cccc(Cl)c5Cl)c4nc3CO)CC21 (stereo not shown) [Example 55, (6-(7-(aminomethyl)-7-(3-fluorophenyl)-3-azabicyclo[4.1.0]heptan-3-yl)-3-(2,3-dichlorophenyl)-1H-pyrazolo[3,4-b]pyrazin-5-yl)methanol] | < 500 | < 1000 | – | – |
| NC[C@]1(c2ccccc2F)[C@@H]2CCN(c3cnc4c(-c5ccc(S(=O)(=O)F)c6ncccc56)n[nH]c4n3)C[C@@H]21 [Example 508, 5-(6-((1S,6R,7R)-7-(aminomethyl)-7-(2-fluorophenyl)-3-azabicyclo[4.1.0]heptan-3-yl)-1H-pyrazolo[3,4-b]pyrazin-3-yl)quinoline-8-sulfonyl fluoride] | < 500 | – | < 1000 | – |
| NC[C@]1(c2ccccc2F)[C@@H]2CCN(c3cnc4c(-c5ccnc(-c6ncco6)c5Cl)n[nH]c4n3)C[C@@H]21 [Example 170, ((1S,6R,7R)-3-(3-(3-chloro-2-(oxazol-2-yl)pyridin-4-yl)-1H-pyrazolo[3,4-b]pyrazin-6-yl)-7-(2-fluorophenyl)-3-azabicyclo[4.1.0]heptan-7-yl)methanamine] | < 500 | < 1000 | – | – |
| Cc1cc([C@@]2(CN)[C@@H]3CCN(c4cnc5c(-c6ccc7nn(C)cc7c6C)n[nH]c5n4)C[C@@H]32)no1 [Example 127, ((1S,6R,7S)-3-(3-(2,4-dimethyl-2H-indazol-5-yl)-1H-pyrazolo[3,4-b]pyrazin-6-yl)-7-(5-methylisoxazol-3-yl)-3-azabicyclo[4.1.0]heptan-7-yl)methanamine] | < 500 | < 1000 | – | – |
| Cc1cc([C@@]2(CN)[C@@H]3CCN(c4cnc5c(-c6ccc(C(F)(F)F)c7ncccc67)n[nH]c5n4)C[C@@H]32)no1 [Example 43, ((1S,6R,7S)-7-(5-methylisoxazol-3-yl)-3-(3-(8-(trifluoromethyl)quinolin-5-yl)-1H-pyrazolo[3,4-b]pyrazin-6-yl)-3-azabicyclo[4.1.0]heptan-7-yl)methanamine] | < 500 | < 1000 | – | – |
| Cn1cc2c(Cl)c(-c3n[nH]c4nc(N5CC[C@@H]6[C@H](CC5)C6(CN)c5ccccc5F)cnc34)ccc2n1 (stereo partly drawn) [Example 404, ((1R,7S)-4-(3-(4-chloro-2-methyl-2H-indazol-5-yl)-1H-pyrazolo[3,4-b]pyrazin-6-yl)-8-(2-fluorophenyl)-4-azabicyclo[5.1.0]octan-8-yl)methanamine] | < 500 | < 1000 | – | – |
| NC[C@]1(c2ccccc2F)[C@@H]2CCN(c3cnc4c(-c5ccc6[nH]c(=O)[nH]c6c5Cl)n[nH]c4n3)C[C@@H]21 [Example 302] | < 500 | – | – | < 1000 |
